What was measured:
[1] = target: T1, UCH37 (Homo sapiens, UniProt Q9Y5K5); test: d5/d0-NEM differential cysteine labeling LC-MS/MS on recombinant UCH37/ADRM1; also Ub-Rho110MP hydrolysis inhibition and activity-probe competition; assay type: binding
T1 construct: gene UCHL5; Human UCH37 (isoform 1) with an N-terminal 6x histidine tag; with ADRM1 (RPN13)

[2] = target: T2, VCPIP1 (Homo sapiens, UniProt Q96JH7); test: SILAC-MS competitive activity profiling (biotin-Ub-PA/VME) in HeLa lysate, […] PEITC; assay type: cell-based
T2 sequence (Q96JH7 1-1222): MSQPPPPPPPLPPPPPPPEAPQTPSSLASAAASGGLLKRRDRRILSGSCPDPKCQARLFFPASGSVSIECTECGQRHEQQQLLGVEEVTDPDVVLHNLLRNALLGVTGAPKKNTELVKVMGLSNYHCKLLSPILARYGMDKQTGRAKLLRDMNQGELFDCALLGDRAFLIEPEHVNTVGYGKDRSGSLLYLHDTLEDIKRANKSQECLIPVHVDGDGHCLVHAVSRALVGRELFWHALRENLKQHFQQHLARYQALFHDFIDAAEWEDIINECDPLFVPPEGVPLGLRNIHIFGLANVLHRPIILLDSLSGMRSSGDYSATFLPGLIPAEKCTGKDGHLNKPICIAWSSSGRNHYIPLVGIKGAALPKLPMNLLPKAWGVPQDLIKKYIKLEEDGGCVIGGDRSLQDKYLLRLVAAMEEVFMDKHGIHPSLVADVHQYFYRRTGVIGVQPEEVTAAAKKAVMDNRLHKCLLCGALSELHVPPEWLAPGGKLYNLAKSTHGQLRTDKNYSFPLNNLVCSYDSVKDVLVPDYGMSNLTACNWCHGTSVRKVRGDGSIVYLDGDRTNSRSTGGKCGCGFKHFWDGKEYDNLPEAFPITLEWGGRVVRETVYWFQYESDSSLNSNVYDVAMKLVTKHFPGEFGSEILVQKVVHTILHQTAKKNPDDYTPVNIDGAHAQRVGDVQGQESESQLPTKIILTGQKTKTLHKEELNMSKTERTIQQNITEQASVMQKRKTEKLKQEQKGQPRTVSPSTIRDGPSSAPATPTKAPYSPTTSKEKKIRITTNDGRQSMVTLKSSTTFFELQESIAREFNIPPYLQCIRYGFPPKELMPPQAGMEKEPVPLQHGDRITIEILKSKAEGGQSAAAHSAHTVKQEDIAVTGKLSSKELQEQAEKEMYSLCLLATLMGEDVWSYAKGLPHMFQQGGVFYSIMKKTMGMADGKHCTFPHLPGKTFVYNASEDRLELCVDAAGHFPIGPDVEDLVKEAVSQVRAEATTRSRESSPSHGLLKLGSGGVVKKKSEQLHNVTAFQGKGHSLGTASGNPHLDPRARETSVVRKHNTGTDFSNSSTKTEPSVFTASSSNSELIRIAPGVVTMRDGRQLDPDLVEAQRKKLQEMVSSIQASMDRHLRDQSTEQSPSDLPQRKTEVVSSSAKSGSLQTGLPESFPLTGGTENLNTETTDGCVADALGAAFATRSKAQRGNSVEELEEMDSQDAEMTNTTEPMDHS

[3] = target: USP16 (Homo sapiens, UniProt Q9Y5T5); test: as above; assay type: cell-based
Sequence of USP16 (Q9Y5T5 whole entry): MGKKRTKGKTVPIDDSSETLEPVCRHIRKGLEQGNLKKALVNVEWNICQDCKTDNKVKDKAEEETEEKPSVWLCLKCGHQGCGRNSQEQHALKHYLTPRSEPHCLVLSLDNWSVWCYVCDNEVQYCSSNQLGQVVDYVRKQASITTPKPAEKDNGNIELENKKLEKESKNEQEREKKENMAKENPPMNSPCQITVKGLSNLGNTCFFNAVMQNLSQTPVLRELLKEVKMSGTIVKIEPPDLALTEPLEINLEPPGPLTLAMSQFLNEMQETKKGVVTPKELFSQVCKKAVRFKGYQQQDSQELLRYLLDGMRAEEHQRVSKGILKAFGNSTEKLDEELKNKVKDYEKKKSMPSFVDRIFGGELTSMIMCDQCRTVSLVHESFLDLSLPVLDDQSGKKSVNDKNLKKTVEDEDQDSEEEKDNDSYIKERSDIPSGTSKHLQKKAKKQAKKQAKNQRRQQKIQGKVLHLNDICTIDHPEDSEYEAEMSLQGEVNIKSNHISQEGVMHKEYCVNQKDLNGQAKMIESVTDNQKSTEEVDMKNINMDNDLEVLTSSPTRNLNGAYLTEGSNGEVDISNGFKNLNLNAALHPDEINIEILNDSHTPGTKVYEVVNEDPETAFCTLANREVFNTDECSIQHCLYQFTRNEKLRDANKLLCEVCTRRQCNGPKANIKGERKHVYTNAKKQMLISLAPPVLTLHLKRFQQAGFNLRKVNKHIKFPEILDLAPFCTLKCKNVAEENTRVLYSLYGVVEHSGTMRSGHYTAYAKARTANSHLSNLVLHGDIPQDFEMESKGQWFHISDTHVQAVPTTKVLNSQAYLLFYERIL

[4] = target: T3, USP3 (Homo sapiens, UniProt Q9Y6I4); test: Biotin-Ub-PA/VME activity-probe labeling with immunoblot after treatment of HEK293T cells; SILAC-MS in HeLa lysate; assay type: cell-based
T3 sequence (Q9Y6I4 1-520): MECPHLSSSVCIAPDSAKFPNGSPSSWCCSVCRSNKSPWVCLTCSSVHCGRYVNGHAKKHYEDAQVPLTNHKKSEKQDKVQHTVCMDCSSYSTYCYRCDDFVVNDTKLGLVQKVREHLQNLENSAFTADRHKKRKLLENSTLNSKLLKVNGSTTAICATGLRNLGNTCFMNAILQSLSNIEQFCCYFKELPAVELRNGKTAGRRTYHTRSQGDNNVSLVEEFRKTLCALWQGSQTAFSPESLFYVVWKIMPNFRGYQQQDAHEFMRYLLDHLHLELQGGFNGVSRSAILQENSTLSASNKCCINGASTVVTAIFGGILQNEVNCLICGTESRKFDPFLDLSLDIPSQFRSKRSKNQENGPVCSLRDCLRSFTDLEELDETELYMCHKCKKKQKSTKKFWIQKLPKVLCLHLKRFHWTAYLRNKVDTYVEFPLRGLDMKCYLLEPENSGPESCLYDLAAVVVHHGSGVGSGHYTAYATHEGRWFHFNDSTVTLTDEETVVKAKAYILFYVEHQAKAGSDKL

[5] = target: T4, USP1 (Homo sapiens, UniProt O94782); test: K63-linked di-ubiquitin gel-based hydrolysis assay with purified USP1/UAF1; also probe labeling in cells and SILAC-MS; assay type: biochemical
T4 construct: recombinant human His6-USP1/UAF1 complex; with UAF1
T4 sequence (O94782 whole entry): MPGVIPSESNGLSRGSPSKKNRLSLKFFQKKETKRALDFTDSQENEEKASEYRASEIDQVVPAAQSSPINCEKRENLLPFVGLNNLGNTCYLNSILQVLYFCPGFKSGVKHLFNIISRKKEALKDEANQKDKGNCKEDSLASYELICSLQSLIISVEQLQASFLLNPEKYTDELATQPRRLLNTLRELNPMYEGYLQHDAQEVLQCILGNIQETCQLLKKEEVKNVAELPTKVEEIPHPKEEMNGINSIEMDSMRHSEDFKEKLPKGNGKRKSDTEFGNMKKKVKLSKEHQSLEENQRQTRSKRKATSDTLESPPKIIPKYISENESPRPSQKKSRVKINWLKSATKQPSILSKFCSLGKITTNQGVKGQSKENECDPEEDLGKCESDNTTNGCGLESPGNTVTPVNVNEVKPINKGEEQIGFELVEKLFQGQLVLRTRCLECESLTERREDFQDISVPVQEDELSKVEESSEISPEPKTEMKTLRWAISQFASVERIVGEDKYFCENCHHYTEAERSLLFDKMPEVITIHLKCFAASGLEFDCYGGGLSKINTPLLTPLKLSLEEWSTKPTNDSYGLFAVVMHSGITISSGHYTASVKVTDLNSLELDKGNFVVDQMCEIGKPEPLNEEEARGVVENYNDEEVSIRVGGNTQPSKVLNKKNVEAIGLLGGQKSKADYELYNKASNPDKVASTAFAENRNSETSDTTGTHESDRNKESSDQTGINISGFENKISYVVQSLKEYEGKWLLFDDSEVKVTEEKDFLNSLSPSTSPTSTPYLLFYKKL
T4 sequence (Q8TAF3 whole entry partner): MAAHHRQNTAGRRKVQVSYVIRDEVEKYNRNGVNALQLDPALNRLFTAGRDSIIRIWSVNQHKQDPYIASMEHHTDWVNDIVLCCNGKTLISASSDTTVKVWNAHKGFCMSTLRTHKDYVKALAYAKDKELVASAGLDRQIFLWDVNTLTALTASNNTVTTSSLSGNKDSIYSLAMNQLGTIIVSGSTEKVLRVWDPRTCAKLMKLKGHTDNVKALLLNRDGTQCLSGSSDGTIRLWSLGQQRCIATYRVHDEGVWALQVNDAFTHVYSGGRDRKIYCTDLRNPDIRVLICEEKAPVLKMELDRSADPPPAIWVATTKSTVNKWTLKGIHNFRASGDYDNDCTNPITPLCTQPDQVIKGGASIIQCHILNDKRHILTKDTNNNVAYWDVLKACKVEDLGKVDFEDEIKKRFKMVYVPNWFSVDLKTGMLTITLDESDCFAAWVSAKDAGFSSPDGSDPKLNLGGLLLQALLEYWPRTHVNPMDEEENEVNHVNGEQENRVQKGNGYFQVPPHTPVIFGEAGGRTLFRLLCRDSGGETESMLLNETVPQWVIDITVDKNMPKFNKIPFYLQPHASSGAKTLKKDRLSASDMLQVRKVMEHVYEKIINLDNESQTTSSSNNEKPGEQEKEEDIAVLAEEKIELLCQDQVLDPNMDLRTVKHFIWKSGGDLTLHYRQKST
Text: K63-linked di-ubiquitin gel-based hydrolysis assay with purified USP1/UAF1; also probe labeling in cells and SILAC-MS on USP1 | hydrolysis of di-Ub by purified USP1 in complex with its activator UAF1 ... Dose dependent inhibition was observed

T1 sequence (Q16186 2-407): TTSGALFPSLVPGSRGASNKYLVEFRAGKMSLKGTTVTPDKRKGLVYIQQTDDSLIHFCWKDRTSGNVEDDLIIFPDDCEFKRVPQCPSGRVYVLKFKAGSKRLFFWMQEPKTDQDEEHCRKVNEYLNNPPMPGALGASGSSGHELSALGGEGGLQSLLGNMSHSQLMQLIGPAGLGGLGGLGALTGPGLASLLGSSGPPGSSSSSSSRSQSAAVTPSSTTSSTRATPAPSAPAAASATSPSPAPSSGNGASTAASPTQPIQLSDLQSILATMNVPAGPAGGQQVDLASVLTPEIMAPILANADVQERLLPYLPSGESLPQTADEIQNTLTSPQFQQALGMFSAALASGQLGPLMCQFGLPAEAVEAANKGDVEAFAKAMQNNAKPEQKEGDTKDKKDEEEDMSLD
T1 sequence (Q9Y5K5 whole entry, canonical isoform): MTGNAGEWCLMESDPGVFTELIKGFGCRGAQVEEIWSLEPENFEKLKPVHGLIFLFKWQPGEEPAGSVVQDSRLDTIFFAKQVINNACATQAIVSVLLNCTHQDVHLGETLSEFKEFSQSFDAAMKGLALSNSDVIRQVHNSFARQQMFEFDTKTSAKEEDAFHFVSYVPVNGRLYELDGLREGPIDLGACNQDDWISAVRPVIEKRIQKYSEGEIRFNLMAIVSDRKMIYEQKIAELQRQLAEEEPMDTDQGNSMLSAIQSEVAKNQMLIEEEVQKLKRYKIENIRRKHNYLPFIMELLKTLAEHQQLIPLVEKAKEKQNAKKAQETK

S=C=NCCc1ccccc1 [PEITC]
d5/d0-NEM differential cysteine labeling LC-MS/MS on recombinant UCH37/ADRM1; al [1]: increase in d0-NEM labeling at Cys88, indicating that the active-site cysteine is the site of PEITC modification
SILAC-MS competitive activity profiling (biotin-Ub-PA/VME) in HeLa lysate, 75 μM [2]: the inhibition of VCPIP1 by PEITC is the first report of inhibition of an OTU domain DUB
SILAC-MS competitive activity profiling (biotin-Ub-PA/VME) in HeLa lysate, 75 μM [3]: USP1, USP3, USP16, USP48 and VCPIP1 were only identified in the absence of PEITC
Biotin-Ub-PA/VME activity-probe labeling with immunoblot after treatment of HEK2 [4]: inhibition of USP3 by PEITC in living cells was confirmed by observing the molecular shift upon probe labeling
K63-linked di-ubiquitin gel-based hydrolysis assay with purified USP1/UAF1; also [5]: hydrolysis of di-Ub by purified USP1 in complex with its activator UAF1 ... Dose dependent inhibition was observed

— paper PMC5584250, “Identification of deubiquitinase targets of isothiocyanates using SILAC-assisted quantitative mass spectrometry” (Oncotarget, 2017)
